Test results: US9701676B2, “Pro-neurogenic compounds” (Board of Regents of The University of Texas System, priority 2012, dated 2017)

What follows are molecules tested on proliferating neural precursor cells in the hippocampus (subgranular layer of the dentate gyrus) (assay: standard in vivo hippocampal neurogenesis assay (BrdU labelling, week-long intracranial mini-pump infusion)). Conditions: 10 μM concentration, seven days of infusion at 0.5 μL/hour, daily IP BrdU; four 12 week old adult male C57/B6 mice; vehicle 14.5.
Parameters: species or system mouse (C57/B6)
Procedure: Compounds were administered at a concentration of 10 μM for each molecule. After seven days of infusion at a constant rate of 0.5 μL/hour, a total of 84 μL of volume will have left the pump (0.00084 μMoles) and entered the cerebrospinal fluid. The average volume of a brain from a 12 week old male, C57/B6 mouse in the study is 500 mm^3. […] Under these conditions, at the end of one week of infusion each compound would be present at 1.7 μMolar concentration. Since the actual amount of chemical compound in the brain is likely to be only a fraction of this predicted level, it is reasonable to estimate that compounds were administered at mid to low-nanomolar concentrations.
During compound infusion, animals were intraperitoneally (IP) injected daily with the thymidine analog, bromodeoxyuridine (BrdU), as a means of scoring the birth and survival of proliferating neural precursor cells in the hippocampus. Because both social interaction and voluntary exercise are known to stimulate hippocampal neurogenesis, mice were housed individually without access to running wheels throughout the screening period. Following the week-long period of compound administration, animals were perfused and sacrificed. Dissected brain tissue was fixed, embedded, sectioned, stained with antibodies to BrdU, and evaluated by light microcopy as a means of quantifying neurogenesis and survival of newborn neural precursor cells localized to the subgranular layer of the dentate gyms on the brain hemisphere contralateral to the side of mini-pump cannulation. Every fifth section throughout the entire rostral-caudal extent of the hippocampus was analyzed, and the total number of BrdU+ cells was normalized against the measured volume of the dentate gyms.
Intracranial infusions of either fibroblast growth factor 2 (FGF-2) or artificial cerebral spinal fluid (aCSF) vehicle via the same, week-long protocol were employed as positive and negative controls.
Compounds were evaluated for pro-neurogenic efficacy/neuroprotection in a standard in vivo hippocampal neurogenesis assay at 10 μM concentration in four 12 week old adult male C57/B16 mice.
With N#CCn1c2ccc(Br)cc2c2cc(Br)ccc21 [P7C3-S235, 2-(3,6-dibromo-9H-carbazol-9-yl)acetonitrile] the “(×10^−06) BrdU+ cells/mm^3 dentate gyrus” value was 23.4 (×10^−06) BrdU+ cells/mm^3. In the case of Cc1ccc2[nH]c3ccc(C)cc3c2c1 [P7C3-S237, 3,6-dimethyl-9H-carbazole], the “(×10^−06) BrdU+ cells/mm^3 dentate gyrus” value is reported as 23.5 (×10^−06) BrdU+ cells/mm^3. For NC(=O)c1ccc2c(c1)c1cc(Br)ccc1n2CC(=O)O [P7C3-S238, 2-(3-bromo-6-carbamoyl-9H-carbazol-9-yl)acetic acid], the “(×10^−06) BrdU+ cells/mm^3 dentate gyrus” value was 18.8 (×10^−06) BrdU+ cells/mm^3. O=C(O)Cn1c2ccc(Br)cc2c2cc(C(=O)O)ccc21 [P7C3-S239, 6-bromo-9-(carboxymethyl)-9H-carbazole-3-carboxylic acid] was tested, and the “(×10^−06) BrdU+ cells/mm^3 dentate gyrus” value was 22.8 (×10^−06) BrdU+ cells/mm^3. Cc1ccc2c(c1)c1cc(Br)ccc1n2CC(=O)O [P7C3-S240, 2-(3-bromo-6-methyl-9H-carbazol-9-yl)acetic acid] was tested, and the “(×10^−06) BrdU+ cells/mm^3 dentate gyrus” value was 28.5 (×10^−06) BrdU+ cells/mm^3. In the case of O=C(O)CCc1c[nH]c2ccccc12 [P7C3-S242, 3-indolepropionic acid, reference compound], the “(×10^−06) BrdU+ cells/mm^3 dentate gyrus” value is reported as 21.5 (×10^−06) BrdU+ cells/mm^3. For CN(C)c1nc(O)c2[nH]c3ccccc3c2n1 [P7C3-S245, 2-(dimethylamino)-5H-pyrimido[5,4-b]indol-4-ol], the “(×10^−06) BrdU+ cells/mm^3 dentate gyrus” value was 32.4 (×10^−06) BrdU+ cells/mm^3. For CCOC(=O)c1ncc2c(n1)c1ccccc1n2S(=O)(=O)c1ccc(C)cc1 [P7C3-S246, ethyl 5-tosyl-5H-pyrimido[5,4-b]indole-2-carboxylate], the “(×10^−06) BrdU+ cells/mm^3 dentate gyrus” value was 29 (×10^−06) BrdU+ cells/mm^3. For CCOC(=O)C1=NCc2c(c3ccccc3n2S(=O)(=O)c2ccc(C)cc2)N1 [P7C3-S247, ethyl 5-tosyl-4,5-dihydro-1H-pyrimido[5,4-b]indole-2-carboxylate], the “(×10^−06) BrdU+ cells/mm^3 dentate gyrus” value was 31.1 (×10^−06) BrdU+ cells/mm^3. N[C@@H](Cc1c[nH]c2ccccc12)C(=O)O [P7C3-S248, L-tryptophan, reference compound] was tested, and the “(×10^−06) BrdU+ cells/mm^3 dentate gyrus” value was 20.1 (×10^−06) BrdU+ cells/mm^3. With N[C@@H](Cc1c[nH]c2ccc(O)cc12)C(=O)O [P7C3-S249, L-5-hydroxy-tryptophan, reference compound] the “(×10^−06) BrdU+ cells/mm^3 dentate gyrus” value was 34.8 (×10^−06) BrdU+ cells/mm^3. For COc1cccc(N(CC(O)Cn2c3ccc(Br)cc3c3cc(Br)ccc32)S(C)(=O)=O)c1 (stereo not shown) [P7C3-S251, N-(3-(3,6-dibromo-9H-carbazol-9-yl)-2-hydroxypropyl)-N-(3-methoxyphenyl)methanesulfonamide], the “(×10^−06) BrdU+ cells/mm^3 dentate gyrus” value was 17.7 (×10^−06) BrdU+ cells/mm^3. COc1cccc(N(CC(O)Cn2c3ccc(Br)cc3c3cc(Br)ccc32)S(=O)(=O)c2ccccc2)c1 (stereo not shown) [P7C3-S252, N-(3-(3,6-dibromo-9H-carbazol-9-yl)-2-hydroxypropyl)-N-(3-methoxyphenyl)benzenesulfonamide] was tested, and the “(×10^−06) BrdU+ cells/mm^3 dentate gyrus” value was 33.2 (×10^−06) BrdU+ cells/mm^3. In the case of COc1cccc(N(CC(O)Cn2c3ccc(Br)cc3c3cc(Br)ccc32)S(=O)(=O)c2ccccc2C(F)(F)F)c1 (stereo not shown) [P7C3-S253, N-(3-(3,6-dibromo-9H-carbazol-9-yl)-2-hydroxypropyl)-N-(3-methoxyphenyl)-2-(trifluoromethyl)benzenesulfonamide], the “(×10^−06) BrdU+ cells/mm^3 dentate gyrus” value is reported as 28.5 (×10^−06) BrdU+ cells/mm^3. For COc1ccc(S(=O)(=O)N(CC(O)Cn2c3ccc(Br)cc3c3cc(Br)ccc32)c2cccc(OC)c2)cc1 (stereo not shown) [P7C3-S254, N-(3-(3,6-dibromo-9H-carbazol-9-yl)-2-hydroxypropyl)-4-methoxy-N-(3-methoxyphenyl)benzenesulfonamide], the “(×10^−06) BrdU+ cells/mm^3 dentate gyrus” value was 25.5 (×10^−06) BrdU+ cells/mm^3. In the case of COc1cccc(N(CC(F)Cn2c3ccc(Br)cc3c3cc(Br)ccc32)S(C)(=O)=O)c1 (stereo not shown) [P7C3-S256, N-(3-(3,6-dibromo-9H-carbazol-9-yl)-2-fluoropropyl)-N-(3-methoxyphenyl)methanesulfonamide], the “(×10^−06) BrdU+ cells/mm^3 dentate gyrus” value is reported as 31.5 (×10^−06) BrdU+ cells/mm^3. For COc1cccc(N(CC(F)Cn2c3ccc(Br)cc3c3cc(Br)ccc32)S(=O)(=O)c2ccccc2C(F)(F)F)c1 (stereo not shown) [P7C3-S257, N-(3-(3,6-dibromo-9H-carbazol-9-yl)-2-fluoropropyl)-N-(3-methoxyphenyl)-2-(trifluoromethyl)benzenesulfonamide], the “(×10^−06) BrdU+ cells/mm^3 dentate gyrus” value was 29.4 (×10^−06) BrdU+ cells/mm^3. COc1ccc(S(=O)(=O)N(CC(F)Cn2c3ccc(Br)cc3c3cc(Br)ccc32)c2cccc(OC)c2)cc1 (stereo not shown) [P7C3-S258, N-(3-(3,6-dibromo-9H-carbazol-9-yl)-2-fluoropropyl)-4-methoxy-N-(3-methoxyphenyl)benzenesulfonamide] was tested, and the “(×10^−06) BrdU+ cells/mm^3 dentate gyrus” value was 29.8 (×10^−06) BrdU+ cells/mm^3. CCOC(=O)c1ncc2[nH]c3ccccc3c2n1 [P7C3-S262, ethyl 5H-pyrimido[5,4-b]indole-2-carboxylate] was tested, and the “(×10^−06) BrdU+ cells/mm^3 dentate gyrus” value was 18 (×10^−06) BrdU+ cells/mm^3. For O=S(=O)(NCC(O)Cn1c2ccc(Br)cc2c2cc(Br)ccc21)C(F)(F)F (stereo not shown) [P7C3-S264, N-(3-(3,6-dibromo-9H-carbazol-9-yl)-2-hydroxypropyl)-1,1,1-trifluoromethanesulfonamide], the “(×10^−06) BrdU+ cells/mm^3 dentate gyrus” value was 20.6 (×10^−06) BrdU+ cells/mm^3. CCCN(CCC)C(=O)Cc1c(-c2ccc(Cl)cc2)nc2ccc(Cl)cn12 [P7C3-S265, 6-Chloro-2-(4-chlorophenyl)-N,N-dipropyl-imidazo[1,2-a]pyridine-3-acetamide, reference compound] was tested, and the “(×10^−06) BrdU+ cells/mm^3 dentate gyrus” value was 29.3 (×10^−06) BrdU+ cells/mm^3. CC(C)CCC[C@@H](C)[C@H]1CC[C@H]2[C@@H]3CCC4=CC(=NO)CC[C@]4(C)[C@H]3CC[C@]12C [P7C3-S266, Cholest-4-en-3-one, oxime, reference compound] was tested, and the “(×10^−06) BrdU+ cells/mm^3 dentate gyrus” value was 42.3 (×10^−06) BrdU+ cells/mm^3. With Cc1c(C)c2c(c(C)c1O)CC[C@@](C)(CCC[C@H](C)CCC[C@H](C)CCCC(C)C)O2 [P7C3-S267, (+)-a-tocopherol, reference compound] the “(×10^−06) BrdU+ cells/mm^3 dentate gyrus” value was 21.4 (×10^−06) BrdU+ cells/mm^3. With N#Cc1[nH]c2ccccc2c1N [P7C3-S268, 3-amino-1H-indole-2-carbonitrile] the “(×10^−06) BrdU+ cells/mm^3 dentate gyrus” value was 32.1 (×10^−06) BrdU+ cells/mm^3. With O=c1[nH]c(=O)c2[nH]c3ccc(Br)cc3c2[nH]1 [P7C3-S269, 8-bromo-1H-pyrimido[5,4-b]indole-2,4(3H, 5H)-dione] the “(×10^−06) BrdU+ cells/mm^3 dentate gyrus” value was 35.4 (×10^−06) BrdU+ cells/mm^3. For CN(C)c1nc(O)c2[nH]c3ccc(Br)cc3c2n1 [P7C3-S270, 8-bromo-2-(dimethylamino)-5H-pyrimido[5,4-b]indol-4-ol], the “(×10^−06) BrdU+ cells/mm^3 dentate gyrus” value was 28 (×10^−06) BrdU+ cells/mm^3. COc1nc(N(C)C)nc2c3cc(Br)ccc3n(C)c12 [P7C3-S275, 8-bromo-4-methoxy-N,N,5-trimethyl-5H-pyrimido[5,4-b]indol-2-amine] was tested, and the “(×10^−06) BrdU+ cells/mm^3 dentate gyrus” value was 20.5 (×10^−06) BrdU+ cells/mm^3. For COc1ccc2[nH]c(C#N)c(N)c2c1 [P7C3-S276, 3-amino-5-methoxy-1H-indole-2-carbonitrile], the “(×10^−06) BrdU+ cells/mm^3 dentate gyrus” value was 29.3 (×10^−06) BrdU+ cells/mm^3. O=C(NCC(O)Cn1c2ccc(Br)cc2c2cc(Br)ccc21)Nc1ccccc1 (stereo not shown) [P7C3-S277, 1-(3-(3,6-dibromo-9H-carbazol-9-yl)-2-hydroxypropyl)-3-phenylurea] was tested, and the “(×10^−06) BrdU+ cells/mm^3 dentate gyrus” value was 20.3 (×10^−06) BrdU+ cells/mm^3. Cc1ccc2c(c1)c1cc(Br)ccc1n2C [P7C3-S280, 3-bromo-6,9-dimethyl-9H-carbazole] was tested, and the “(×10^−06) BrdU+ cells/mm^3 dentate gyrus” value was 25.1 (×10^−06) BrdU+ cells/mm^3. With “FGF-2: fibroblast growth factor 2, intracranial infusion employed as positive control” the “(×10^−06) BrdU+ cells/mm^3 dentate gyrus” value was 28.4 (×10^−06) BrdU+ cells/mm^3.
